Assay results as given in US11214594B2, “Antimicrobial peptide having synergistic antibacterial effect with antibiotics on multidrug resistant bacteria, and use thereof” (priority 2016, dated 2022).
≈ marks a conversion by molar mass, not a printed value. Like-named read-outs stand apart in the source and are kept apart here. Where a SMILES comes first, the peptide text is derived from it. [ ]: non-standard residue; d: D form.

Tests used:
[1] = system: MDRST 8007; experiment: Minimal inhibitory concentration (MIC), single agent; type: cell-based, Salmonella typhimurium; conditions: agent alone
Summary of the method: (§1)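 MIC read-out = lowest peptide level with no bacterial proliferation. Strains diluted in MH medium to 2×10^6 CFU; peptide twofold serial dilutions in MH added 1:1 in microtiter wells.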

[2] = system: A. baumannii; experiment: MIC of antimicrobial peptide during combined treatment with antibiotic; type: cell-based, Acinetobacter baumannii
Summary of the method: (§2)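 Antibiotic MIC came from antibiotic dilutions added to bacteria (2×10^6 CFU/ml, MH medium) already combined with peptide serially diluted 2:1 from its own MIC. Swapping the roles of the two agents gave the peptide MIC.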

[3] = system: MDRAB 12035; experiment: as above; type: cell-based, Acinetobacter baumannii
Summary of the method: as §2

[4] = system: P. aeruginosa; experiment: microbe, parasite or virus in culture; type: cell-based, Pseudomonas aeruginosa
Summary of the method: as §1

[5] = system: MDREC 1229; type: cell-based, Escherichia coli
Summary of the method: as §2

[6] = system: E. coli; type: cell-based, Escherichia coli; conditions: E. coli
Summary of the method: as §2

[7] = system: S. epidermidis; experiment: microbe, parasite or virus in culture; type: cell-based, Staphylococcus epidermidis
Summary of the method: as §1

[8] = system: MDRAB 12035; experiment: MIC of antibiotic during combined treatment with antimicrobial peptide; type: cell-based, Acinetobacter baumannii
Summary of the method: as §2

[9] = system: A. baumannii; experiment: microbe, parasite or virus in culture; type: cell-based, Acinetobacter baumannii
Summary of the method: as §1

[10] = system: MDRAB 12035; experiment: microbe, parasite or virus in culture; type: cell-based, Acinetobacter baumannii
Summary of the method: as §1

[11] = system: A. baumannii; experiment: MIC of antibiotic during combined treatment with antimicrobial peptide; type: cell-based, Acinetobacter baumannii; conditions: for Antibiotic MIC, Erythromycin / Antibiotic MIC, Linezolid / Antibiotic MIC, Vancomycin: A. baumannii
Summary of the method: (§3)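 Antibiotic diluted in MH medium, dispensed per well with peptide; setup repeated with roles reversed; MIC read per combination.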

[12] = system: E. coli; experiment: as above; type: cell-based, Escherichia coli; conditions: for Antibiotic MIC, Erythromycin / Antibiotic MIC, Linezolid / Antibiotic MIC, Vancomycin: E. coli
Summary of the method: as §3

[13] = erythromycin 4 μg/ml (Conc./MIC 1/8)
[14] = erythromycin 8 μg/ml (Conc./MIC 1/4)
[15] = erythromycin 16 μg/ml (Conc./MIC 1/2)
[16] = erythromycin 32 μg/ml (Conc./MIC 1)
[17] = vancomycin 512 μg/ml (Conc./MIC 1/2)
[18] = vancomycin 1024 μg/ml (Conc./MIC 1)
[19] = linezolid 64 μg/ml (Conc./MIC 1/8)
[20] = linezolid 512 μg/ml (Conc./MIC 1)
[21] = peptide treatment concentration 1 μg/ml
[22] = peptide treatment concentration 2 μg/ml
[23] = peptide treatment concentration 4 μg/ml
[24] = peptide treatment concentration 6 μg/ml
[25] = peptide treatment concentration 8 μg/ml
[26] = peptide treatment concentration 16 μg/ml
[27] = peptide treatment concentration 32 μg/ml
[28] = peptide treatment concentration 64 μg/ml
[29] = combined with peptide at 1 μg/ml
[30] = combined with peptide at 2 μg/ml
[31] = combined with peptide at 4 μg/ml
[32] = combined with peptide at 6 μg/ml
[33] = combined with peptide at 8 μg/ml
[34] = combined with peptide at 16 μg/ml
[35] = combined with peptide at 32 μg/ml
[36] = combined with peptide at 64 μg/ml

CC[C@H](C)[C@H](NC(=O)[C@H](CCCCN)NC(=O)[C@H](Cc1c[nH]c2ccccc12)NC(=O)[C@@H](N)CCCNC(=N)N)C(=O)N[C@@H](Cc1ccccc1)C(=O)N[C@@H](CCCCN)C(=O)N[C@@H](CCCCN)C(=O)N[C@H](C(=O)N[C@H](CCCCN)C(=O)N[C@@H](CCCCN)C(=O)N[C@@H](CC(C)C)C(=O)N[C@@H](CC(C)C)C(=O)N[C@@H](Cc1c[nH]cn1)C(=O)N[C@@H](CCC(=O)O)C(=O)N[C@@H](Cc1ccccc1)C(=O)N[C@@H](CCCCN)C(=O)N[C@@H](CCCCN)C(=O)N[C@@H](Cc1ccccc1)C(N)=O)[C@@H](C)CC [PapMA-19, RWK IFK KIk KLL HEF KKF-NH2] (H-RWKIFKKI[dK]KLLHEFKKF-NH2; N-terminus assumed)
Minimal inhibitory concentration MIC [1]: 64 µg/mL (≈ 26.5 µM)
Peptide MIC during treatment with antibiotic [2, 13]: 4 µg/mL
Peptide MIC during treatment with antibiotic [2, 14]: 4 µg/mL
Peptide MIC during treatment with antibiotic [2, 15]: 2 µg/mL
Peptide MIC during treatment with antibiotic [2, 16]: 0 µg/mL
Peptide MIC during treatment with antibiotic ([2]; linezolid 32 μg/ml (Conc./MIC 1/8)): 4 µg/mL
Peptide MIC during treatment with antibiotic ([2]; linezolid 64 μg/ml (Conc./MIC 1/4)): 2 µg/mL
Peptide MIC during treatment with antibiotic ([2]; linezolid […] (Conc./MIC 1)): 0 µg/mL
Peptide MIC during treatment with antibiotic ([2]; linezolid […] (Conc./MIC 1/2)): 1 µg/mL
Peptide MIC during treatment with antibiotic [2, 17]: 0.25 µg/mL
Peptide MIC during treatment with antibiotic [2, 18]: 0 µg/mL
Peptide MIC during treatment with antibiotic ([2]; vancomycin […] (Conc./MIC 1/4)): 0.5 µg/mL
Peptide MIC during treatment with antibiotic ([2]; vancomycin […] (Conc./MIC 1/8)): 2 µg/mL
Peptide MIC during treatment with erythromycin [3, 13]: 4 µg/mL
Peptide MIC during treatment with erythromycin [3, 14]: 4 µg/mL
Peptide MIC during treatment with erythromycin [3, 15]: 2 µg/mL
Peptide MIC during treatment with erythromycin [3, 16]: 0 µg/mL
Peptide MIC during treatment with linezolid [3, 19]: 4 µg/mL
Peptide MIC during treatment with linezolid [3, 20]: 0 µg/mL
Peptide MIC during treatment with linezolid ([3]; linezolid […] (Conc./MIC 1/2)): 1 µg/mL
Peptide MIC during treatment with linezolid ([3]; linezolid […] (Conc./MIC 1/4)): 2 µg/mL
Peptide MIC during treatment with vancomycin [3, 17]: 2 µg/mL
Peptide MIC during treatment with vancomycin [3, 18]: 1 µg/mL
Peptide MIC during treatment with vancomycin ([3]; vancomycin […] (Conc./MIC 1/4)): 2 µg/mL
Peptide MIC during treatment with vancomycin ([3]; vancomycin […] (Conc./MIC 1/8)): 2 µg/mL
Minimal inhibitory concentration MIC [4]: 64 µg/mL (≈ 26.5 µM)
Peptide MIC during treatment with antibiotic ([5]; erythromycin 32 μg/ml (Conc./MIC 1/8)): 2 µg/mL
Peptide MIC during treatment with antibiotic ([5]; erythromycin 64 μg/ml (Conc./MIC 1/4)): 2 µg/mL
Peptide MIC during treatment with antibiotic ([5]; erythromycin […] (Conc./MIC 1)): 0 µg/mL
Peptide MIC during treatment with antibiotic ([5]; erythromycin […] (Conc./MIC 1/2)): 1 µg/mL
Peptide MIC during treatment with antibiotic [5, 19]: 4 µg/mL
Peptide MIC during treatment with antibiotic [5, 20]: 0 µg/mL
Peptide MIC during treatment with antibiotic ([5]; linezolid […] (Conc./MIC 1/2)): 1 µg/mL
Peptide MIC during treatment with antibiotic ([5]; linezolid […] (Conc./MIC 1/4)): 2 µg/mL
Peptide MIC during treatment with antibiotic [5, 17]: 2 µg/mL
Peptide MIC during treatment with antibiotic [5, 18]: 1 µg/mL
Peptide MIC during treatment with antibiotic ([5]; vancomycin […] (Conc./MIC 1/4)): 4 µg/mL
Peptide MIC during treatment with antibiotic ([5]; vancomycin […] (Conc./MIC 1/8)): 4 µg/mL
Peptide MIC ([6]; with Erythromycin […] (Conc./MIC 1)): 0 µg/mL
Peptide MIC ([6]; with Linezolid […] (Conc./MIC 1)): 0 µg/mL
Peptide MIC ([6]; with Vancomycin 1024 μg/ml (Conc./MIC 1)): 0 µg/mL
Minimal inhibitory concentration MIC [7]: >128 µg/mL
Erythromycin MIC during combined treatment with peptide [8, 21]: 32 µg/mL
Linezolid MIC during combined treatment with peptide [8, 21]: >128 µg/mL
Vancomycin MIC during combined treatment with peptide [8, 21]: >128 µg/mL
Erythromycin MIC during combined treatment with peptide [8, 22]: 16 µg/mL
Linezolid MIC during combined treatment with peptide [8, 22]: 128 µg/mL
Vancomycin MIC during combined treatment with peptide [8, 22]: 128 µg/mL
Erythromycin MIC during combined treatment with peptide [8, 23]: 8 µg/mL
Linezolid MIC during combined treatment with peptide [8, 23]: 64 µg/mL
Vancomycin MIC during combined treatment with peptide [8, 23]: 64 µg/mL
Erythromycin MIC during combined treatment with peptide [8, 24]: 2 µg/mL
Linezolid MIC during combined treatment with peptide [8, 24]: 16 µg/mL
Vancomycin MIC during combined treatment with peptide [8, 24]: 32 µg/mL
Erythromycin MIC during combined treatment with peptide [8, 25]: 0.5 µg/mL
Linezolid MIC during combined treatment with peptide [8, 25]: 8 µg/mL
Vancomycin MIC during combined treatment with peptide [8, 25]: 16 µg/mL
Erythromycin MIC during combined treatment with peptide [8, 26]: 0.125 µg/mL
Linezolid MIC during combined treatment with peptide [8, 26]: 4 µg/mL
Vancomycin MIC during combined treatment with peptide [8, 26]: 8 µg/mL
Erythromycin MIC during combined treatment with peptide [8, 27]: 0 µg/mL
Linezolid MIC during combined treatment with peptide [8, 27]: 0 µg/mL
Vancomycin MIC during combined treatment with peptide [8, 27]: 0 µg/mL
Erythromycin MIC during combined treatment with peptide [8, 28]: 0 µg/mL
Linezolid MIC during combined treatment with peptide [8, 28]: 0 µg/mL
Vancomycin MIC during combined treatment with peptide [8, 28]: 0 µg/mL
Minimal inhibitory concentration MIC [9]: 16 µg/mL (≈ 6.62 µM)
Peptide MIC, peptide alone [9]: 16 µg/mL
Antibacterial activity relative to PapMA-1 ([9]; A. baumannii and S. typhimurium): at least twice as high
Minimal inhibitory concentration MIC [10]: 32 µg/mL (≈ 13.2 µM)
Peptide MIC, peptide alone [10]: 32 µg/mL
Synergistic effect of antibacterial activity with existing antibiotics compared with PapMA-1 ([11]; A. baumannii and MDRAB 12035): higher level than the PapMA-1 peptide
Antibiotic MIC, Erythromycin [11, 29]: 32 µg/mL
Antibiotic MIC, Linezolid [11, 29]: >128 µg/mL
Antibiotic MIC, Vancomycin [11, 29]: >128 µg/mL
Antibiotic MIC, Erythromycin [11, 30]: 16 µg/mL
Antibiotic MIC, Linezolid [11, 30]: 64 µg/mL
Antibiotic MIC, Vancomycin [11, 30]: 128 µg/mL
Antibiotic MIC, Erythromycin [11, 31]: 4 µg/mL
Antibiotic MIC, Linezolid [11, 31]: 16 µg/mL
Antibiotic MIC, Vancomycin [11, 31]: 32 µg/mL
Antibiotic MIC, Erythromycin [11, 32]: 2 µg/mL
Antibiotic MIC, Linezolid [11, 32]: 8 µg/mL
Antibiotic MIC, Vancomycin [11, 32]: 8 µg/mL
Antibiotic MIC, Erythromycin [11, 33]: 0.25 µg/mL
Antibiotic MIC, Linezolid [11, 33]: 4 µg/mL
Antibiotic MIC, Vancomycin [11, 33]: 4 µg/mL
Antibiotic MIC, Erythromycin [11, 34]: 0 µg/mL
Antibiotic MIC, Linezolid [11, 34]: 0 µg/mL
Antibiotic MIC, Vancomycin [11, 34]: 0 µg/mL
Antibiotic MIC, Erythromycin [11, 35]: 0 µg/mL
Antibiotic MIC, Linezolid [11, 35]: 0 µg/mL
Antibiotic MIC, Vancomycin [11, 35]: 0 µg/mL
Antibiotic MIC, Erythromycin [11, 36]: 0 µg/mL
Antibiotic MIC, Linezolid [11, 36]: 0 µg/mL
Antibiotic MIC, Vancomycin [11, 36]: 0 µg/mL
Synergistic effect of antibacterial activity with existing antibiotics compared with PapMA-1 ([12]; E. coli and MDREC1229): higher level than the PapMA-1 peptide
Antibiotic MIC, Erythromycin ([12]; erythromycin combined with peptide at 1 μg/ml): 64 µg/mL
Antibiotic MIC, Erythromycin ([12]; erythromycin combined with peptide at 2 μg/ml): 32 µg/mL
Antibiotic MIC, Erythromycin ([12]; erythromycin combined with peptide at 4 μg/ml): 8 µg/mL
Antibiotic MIC, Erythromycin ([12]; erythromycin combined with peptide at 6 μg/ml): 2 µg/mL
Antibiotic MIC, Erythromycin ([12]; erythromycin combined with peptide at 8 μg/ml): 1 µg/mL
Antibiotic MIC, Erythromycin ([12]; erythromycin combined with peptide at 16 μg/ml): 0.25 µg/mL
Antibiotic MIC, Erythromycin ([12]; erythromycin combined with peptide at 32 μg/ml): 0 µg/mL
Antibiotic MIC, Erythromycin ([12]; erythromycin combined with peptide at 64 μg/ml): 0 µg/mL
Antibiotic MIC, Linezolid ([12]; linezolid combined with peptide at 1 μg/ml): >128 µg/mL
Antibiotic MIC, Linezolid ([12]; linezolid combined with peptide at 2 μg/ml): 64 µg/mL
Antibiotic MIC, Linezolid ([12]; linezolid combined with peptide at 4 μg/ml): 32 µg/mL
Antibiotic MIC, Linezolid ([12]; linezolid combined with peptide at 6 μg/ml): 8 µg/mL
Antibiotic MIC, Linezolid ([12]; linezolid combined with peptide at 8 μg/ml): 8 µg/mL
Antibiotic MIC, Linezolid ([12]; linezolid combined with peptide at 16 μg/ml): 4 µg/mL
Antibiotic MIC, Linezolid ([12]; linezolid combined with peptide at 32 μg/ml): 0 µg/mL
Antibiotic MIC, Linezolid ([12]; linezolid combined with peptide at 64 μg/ml): 0 µg/mL
Antibiotic MIC, Vancomycin ([12]; vancomycin combined with peptide at 1 μg/ml): >128 µg/mL
Antibiotic MIC, Vancomycin ([12]; vancomycin combined with peptide at 2 μg/ml): 128 µg/mL
Antibiotic MIC, Vancomycin ([12]; vancomycin combined with peptide at 4 μg/ml): 64 µg/mL
Antibiotic MIC, Vancomycin ([12]; vancomycin combined with peptide at 6 μg/ml): 8 µg/mL
Antibiotic MIC, Vancomycin ([12]; vancomycin combined with peptide at 8 μg/ml): 8 µg/mL
Antibiotic MIC, Vancomycin ([12]; vancomycin combined with peptide at 16 μg/ml): 4 µg/mL
Antibiotic MIC, Vancomycin ([12]; vancomycin combined with peptide at 32 μg/ml): 0 µg/mL
Antibiotic MIC, Vancomycin ([12]; vancomycin combined with peptide at 64 μg/ml): 0 µg/mL
